Data as given in patent US10668064B2, “Polycyclic-carbamoylpyridone compounds and their pharmaceutical use” (Gilead Sciences, Inc., priority 2013, dated 2020).

What was measured:
HIV-IIIb = assay: Antiviral assay in MT4 cells; type: cell-based; details: Human immunodeficiency virus 1, 120 h; MT4 cells infected with HIV-IIIb, 5 days incubation, CellTiter-Glo; average over time; read-out: EC50 nM in MT-4
Procedure: (§1) For the antiviral assay utilizing MT4 cells, 0.4 μL of 189× test concentration of 3-fold serially diluted compound in DMSO was added to 40 μL of cell growth medium (RPMI 1640, 10% FBS, 1% penicillin/streptomycin, 1% L-Glutamine, 1% HEPES) in each well of 384-well assay plates (10 concentrations) in quadruplicate. 1 mL aliquots of 2×10^6 MT4 cells are pre-infected for 1 and 3 hours respectively at 37° C. with 25 μL (MT4) or of either cell growth medium (mock-infected) or a fresh 1:250 dilution of an HIV-IIIb concentrated ABI stock (0.004 m.o.i. for MT4 cells). Infected and uninfected cells are diluted in cell growth medium and 35 μL of 2000 (for MT4) cells is added to each well of the assay plates. Assay plates were then incubated in a 37° C. incubator. After 5 days of incubation, 25 μL of 2× concentrated CellTiter-Glo™ Reagent (catalog # G7573, Promega Biosciences, Inc., Madison, Wis.) was added to each well of the assay plate. Cell lysis was carried out by incubating at room temperature for 2-3 minutes, and then chemiluminescence was read using the Envision reader (PerkinElmer).

in vitro = type: cell-based; details: human
Procedure: as §1

Row | Structure (SMILES) | EC50 (HIV-IIIb) [nM] | CC50 at 5 days (in vitro) [nM]
1 | O=C(NCc1ccc(F)cc1F)c1cn2c(c(O)c1=O)C(=O)N1C(C2)O[C@@H]2C[C@H]1[C@H]1C[C@H]12 (stereo partly drawn) [Compound 6, (1aR,2R,3aS,12S,12a5)-N-(2,4-difluorobenzyl)-9-hydroxy-8,10-dioxo-1a,2,3a,4,8,10,12,12a-octahydro-1H-2,12-methanocyclopropa[e]pyrido[1′,2′:4,5]pyrazino[2,1-b][1,3]oxazepine-7-carboxamide] | 1.5 | 14100
2 | O=C(NCc1ccc(F)cc1F)c1cn2c(c(O)c1=O)C(=O)N1[C@@H]3C[C@H](O[C@@H]1C2)[C@H]1C[C@H]13 [Compound 7, (1aS,2S,3aR,12R,12aR)-N-(2,4-difluorobenzyl)-9-hydroxy-8,10-dioxo-1a,2,3a,4,8,10,12,12a-octahydro-1H-2,12-methanocyclopropa[e]pyrido[1′,2′:4,5]pyrazino[2,1-b][1,3]oxazepine-7-carboxamide] | 2.7 | 4830
3 | O=C(NCc1ccc(F)cc1F)c1cn2c(c(O)c1=O)C(=O)N1[C@H](C2)[C@@H]2C[C@H]1[C@H]1C[C@@H]21 [Compound 8, (1aS,2S,10aS,11R,11aR)-N-(2,4-difluorobenzyl)-5-hydroxy-4,6-dioxo-1a,2,4,6,10,10a,11,11a-octahydro-1H-2,11-methanocyclopropa[4,5]pyrido[1,2-a]pyrido[1,2-d]pyrazine-7-carboxamide] | 1.4 | 8840
4 | O=C(NCc1c(F)cc(F)cc1F)c1cn2c(c(O)c1=O)C(=O)N1[C@@H]3C[C@@H]([C@H]4C[C@H]43)[C@@H]1C2 [Compound 12, (1aR,2R,10aR,11S,11aS)-5-hydroxy-4,6-dioxo-N-(2,4,6-trifluorobenzyl)-1a,2,4,6,10,10a,11,11a-octahydro-1H-2,11-methanocyclopropa[4,5]pyrido[1,2-a]pyrido[1,2-d]pyrazine-7-carboxamide] | 2.9 | 22800
5 | O=C(NCc1cc(F)c(F)cc1F)c1cn2c(c(O)c1=O)C(=O)N1C3CC([C@@H]4C[C@H]34)[C@@H]1C2 (stereo partly drawn) [Compound 13, (1aR,2R,10aR,11S,11a5)-5-hydroxy-4,6-dioxo-N-(2,4,5-trifluorobenzyl)-1a,2,4,6,10,10a,11,11a-octahydro-1H-2,11-methanocyclopropa[4,5]pyrido[1,2-a]pyrido[1,2-d]pyrazine-7-carboxamide] | 2.3 | 7050
6 | O=C(N[C@@H](c1ccc(F)cc1F)C(F)(F)F)c1cn2c(c(O)c1=O)C(=O)N1[C@@H]3C[C@H](O[C@@H]1C2)[C@H]1C[C@H]13 [Compound 1, (1aS,2S,3aR,12R,12aR)-N-((S)-1-(2,4-difluorophenyl)-2,2,2-trifluoroethyl)-9-hydroxy-8,10-dioxo-1a,2,3a,4,8,10,12,12a-octahydro-1H-2,12-methanocyclopropa[e]pyrido[1′,2′:4,5]pyrazino[2,1-b][1,3]oxazepine-7-carboxamide] | 9.6 | 14100
7 | O=C(NCc1c(F)cc(F)cc1F)c1cn2c(c(O)c1=O)C(=O)N1[C@H](C2)[C@@H]2C[C@H]1[C@H]1C[C@@H]21 [Compound 9, (1aS,2S,10aS,11R,11aR)-5-hydroxy-4,6-dioxo-N-(2,4,6-trifluorobenzyl)-1a,2,4,6,10,10a,11,11a-octahydro-1H-2,11-methanocyclopropa[4,5]pyrido[1,2-a]pyrido[1,2-d]pyrazine-7-carboxamide] | 1.4 | 10700
8 | O=C(NCc1ccc(F)cc1F)c1cn2c(c(O)c1=O)C(=O)N1C(C2)O[C@@H]2C[C@H]1[C@@H]1[C@H]2C1(F)F (stereo partly drawn) [Compound 5, (1aR,2R,12S,12a5)-N-(2,4-difluorobenzyl)-1,1-difluoro-9-hydroxy-8,10-dioxo-1a,2,3a,4,8,10,12,12a-octahydro-1H-2,12-methanocyclopropa[e]pyrido[1′,2′:4,5]pyrazino[2,1-b][1,3]oxazepine-7-carboxamide] | 1.6 | 50500
9 | O=C(N[C@@H](c1ccc(F)cc1F)C(F)(F)F)c1cn2c(c(O)c1=O)C(=O)N1[C@H](C2)O[C@@H]2C[C@H]1[C@H]1C[C@H]12 [Compound 2, (1aR,2R,3aS,12S,12aS)-N-((S)-1-(2,4-difluorophenyl)-2,2,2-trifluoroethyl)-9-hydroxy-8,10-dioxo-1a,2,3a,4,8,10,12,12a-octahydro-1H-2,12-methanocyclopropa[e]pyrido[1′,2′:4,5]pyrazino[2,1-b][1,3]oxazepine-7-carboxamide] | 10.7 | 7800
10 | O=C(NCc1c(F)cc(F)cc1F)c1cn2c(c(O)c1=O)C(=O)N1[C@@H]3C[C@H](O[C@@H]1C2)[C@H]1C[C@H]13 [Compound 10, (1aS,2S,3aR,12R,12aR)-9-hydroxy-8,10-dioxo-N-(2,4,6-trifluorobenzyl)-1a,2,3a,4,8,10,12,12a-octahydro-1H-2,12-methanocyclopropa[e]pyrido[1′,2′:4,5]pyrazino[2,1-b][1,3]oxazepine-7-carboxamide] | 1.7 | 7590
11 | C[C@@H](NC(=O)c1cn2c(c(O)c1=O)C(=O)N1[C@@H]3C[C@H](O[C@@H]1C2)[C@H]1C[C@H]13)c1ccc(F)cc1F [Compound 3, (1aS,2S,3aR,12R,12aR)-N-((R)-1-(2,4-difluorophenyl)ethyl)-9-hydroxy-8,10-dioxo-1a,2,3a,4,8,10,12,12a-octahydro-1H-2,12-methanocyclopropa[e]pyrido[1′,2′:4,5]pyrazino[2,1-b][1,3]oxazepine-7-carboxamide] | 9.9 | 4100
12 | O=C(NCc1c(F)cc(F)cc1F)c1cn2c(c(O)c1=O)C(=O)N1C(C2)O[C@@H]2C[C@H]1[C@H]1C[C@H]12 (stereo partly drawn) [Compound 11, (1aR,2R,10aR,11S,11a5)-5-hydroxy-4,6-dioxo-N-(2,4,6-trifluorobenzyl)-1a,2,4,6,10,10a,11,11a-octahydro-1H-2,11-methanocyclopropa[4,5]pyrido[1,2-a]pyrido[1,2-d]pyrazine-7-carboxamide] | 1.5 | 11000
13 | C[C@@H](NC(=O)c1cn2c(c(O)c1=O)C(=O)N1C3CC(O[C@H]1C2)[C@@H]1C[C@H]31)c1ccc(F)cc1F (some centres unmarked) [Compound 4] | 8.4 | 12800
